Patent US8691993B2, “Piperidinyl naphthylacetic acids” (Hoffman-La Roche Inc., priority 2011, dated 2014)

Biological target: human CRTH2 receptor (Homo sapiens (Human), UniProt Q9Y5Y4)
Assay: Calcium Flux Assay Using Fluorometric Imaging Plate Reader (FLIPR)
Type: cell-based
Settings: CHO-K1 cells transfected with G-alpha 16 and human CRTH2 receptor; DK-PGD2 ligand; 1 hour compound incubation
Experimental: Calcium Flux Assay Using Fluorometric Imaging Plate Reader (FLIPR)
CHO-K1 cells previously transfected with G-alpha 16 were subsequently transfected with the human CRTH2 receptor and the neomycin resistance gene. Following selection in 800 μg/mL G418 (geneticin), individual clones were assayed for their receptor expression based on staining with an anti human CRTH2 IgG, followed by assaying for their response to 13,14-dihydro-15-keto Prostaglandin D2 (DK-PDG2) (ligand) in the Ca^2+ Flux assay. Positive clones were then cloned by limiting dilution cloning. The transfected cells were cultured in Ham's F-12 medium supplemented with 10% fetal bovine serum, 2 mM glutamine, 100 U/mL penicillin/100 μg/mL streptomycin, 200 μg/mL hygromycin B, and 800 μg/mL G418 (geneticin). Cells were harvested with trypsin-EDTA (trypsin-ethylenediaminetetraacetic acid) and counted using ViaCount® reagent (from Guava Technologies, Inc. which contains two DNA-binding dyes that enable the reagent user to distinguish between viable and non-viable cells). The cell suspension volume was adjusted to 2.5×10^5 cells/mL with complete growth media. Aliquots of 50 μL were dispensed into BD Falcon™ 384 well black/clear microplates (from BD Biosciences, a division of Becton, Dickinson and Company) and the microplates were placed in a 37° C. CO2 incubator overnight. The following day, the microplates were used in the assay.
Loading Buffer containing dye (from the FLIPR® Calcium 3 Assay Kit from Molecular Devices, a division of MDS Analytical Technologies and MDS Inc.) was prepared by dissolving the contents of one bottle into 200 mL Hank's Balanced Salt Solution containing 20 mM HEPES (4-(2-hydroxyethyl)-1-piperazineethanesulfonic acid) and 2.5 mM probenecid. Growth media was removed from the cell plates and 25 μL of Hank's Balanced Salt Solution (HBSS) containing 20 mM HEPES, 0.05% BSA and 2.5 mM probenecid was added to each well followed by 25 μL of diluted dye using a Multidrop dispenser. The plates were then incubated for 1 hour at 37° C.
During the incubation, test compound plates were prepared by adding 90 μL of HBSS/20 mM HEPES/0.005% BSA buffer to the 2 μL of serial diluted compounds. To prepare serial diluted compounds, 20 mM stocks of compounds were dissolved in 100% DMSO. The compound dilution plate was set up as follows: well #1 received 5 μL of compound plus 10 μL of DMSO. Wells 2-10 received 10 μL of DMSO. 5 μL was mixed and transferred from well #1 into well #2. 1:3 serial dilutions were continued out 10 steps. 2 μL of diluted compound was transferred into duplicate wells of a 384 well “assay plate” and then 90 μL of buffer was added.
After incubation, both the cell and “assay plate” plates were brought to the fluorometric imaging plate reader (FLIPR®) and 20 μL of the diluted compounds were transferred to the cell plates by the FLIPR®. Plates were then incubated for 1 hour at room temperature. After the 1 hour incubation, plates were returned to the FLIPR® and 20 μL of 4.5× concentrated ligand was added to the cell plates. During the assay, fluorescence readings were taken simultaneously from all 384 wells of the cell plate every 1.5 seconds. Five readings were taken to establish a stable baseline, then 20 μL of sample was rapidly (30 μL/sec) and simultaneously added to each well of the cell plate. The fluorescence was continuously monitored before, during and after sample addition for a total elapsed time of 100 seconds. Responses (increase in peak fluorescence) in each well following agonist addition were determined. The initial fluorescence reading from each well, prior to ligand stimulation, was used as a zero baseline value for the data from that well. The responses were expressed as % inhibition of the buffer control. […]

human CRTH2 receptor, sequence (Q9Y5Y4 whole entry): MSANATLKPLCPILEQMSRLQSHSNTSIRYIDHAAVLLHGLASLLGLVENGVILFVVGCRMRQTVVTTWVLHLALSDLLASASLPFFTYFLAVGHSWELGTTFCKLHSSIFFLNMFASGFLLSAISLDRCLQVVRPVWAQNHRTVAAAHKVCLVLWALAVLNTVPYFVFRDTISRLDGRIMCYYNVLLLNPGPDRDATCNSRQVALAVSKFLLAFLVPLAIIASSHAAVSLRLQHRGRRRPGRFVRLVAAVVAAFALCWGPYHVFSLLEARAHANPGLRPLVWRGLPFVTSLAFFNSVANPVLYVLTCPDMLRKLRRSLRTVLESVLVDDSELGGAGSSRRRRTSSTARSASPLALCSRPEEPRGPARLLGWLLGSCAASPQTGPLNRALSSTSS

First: O=C(O)Cc1cc(C2CCN(S(=O)(=O)c3cccnc3)CC2)c2cc(F)ccc2c1 [Example 4, {6-Fluoro-4-[1-(pyridine-3-sulfonyl)-piperidin-4-yl]-naphthalen-2-yl}-acetic acid]
Second: O=C(O)Cc1cc(C2CCN(S(=O)(=O)c3ccncc3)CC2)c2cc(F)ccc2c1 [Example 5, {6-Fluoro-4-[1-(pyridine-4-sulfonyl)-piperidin-4-yl]-naphthalen-2-yl}-acetic acid]
The IC50 of the first is 1.9-fold higher: 1740 nM for the first, 898 nM for the second.

`Cc1ccc(S(=O)(=O)N2CCC(c3cc(CC(=O)O)cc4ccc(F)cc34)CC2)cc1` [Example 2, {6-Fluoro-4-[1-(toluene-4-sulfonyl)-piperidin-4-yl]-naphthalen-2-yl}-acetic acid] and `O=C(O)Cc1cc(C2CCN(S(=O)(=O)c3ccc(Cl)cc3)CC2)c2cc(F)ccc2c1` [Example 8, {4-[1-(4-Chloro-benzenesulfonyl)-piperidin-4-yl]-6-fluoro-naphthalen-2-yl}-acetic acid] are within 1.5-fold of each other in IC50: 53 nM for the first, 42 nM for the second.

First: O=C(O)Cc1cc(C2CCN(S(=O)(=O)c3cc(C(F)(F)F)cc(C(F)(F)F)c3)CC2)c2cc(F)ccc2c1 [Example 13, {4-[1-(3,5-Bis-trifluoromethyl-benzenesulfonyl)-piperidin-4-yl]-6-fluoro-naphthalen-2-yl}-acetic acid]
Second: O=C(O)Cc1cc(C2CCN(S(=O)(=O)c3cc(Cl)cc(Cl)c3)CC2)c2cc(F)ccc2c1 [Example 12, {4-[1-(3,5-Dichloro-benzenesulfonyl)-piperidin-4-yl]-6-fluoro-naphthalen-2-yl}-acetic acid]
The IC50 of the first is 3.3-fold higher: 1350 nM for the first, 404 nM for the second.

`O=C(O)Cc1cc(C2CCN(S(=O)(=O)c3ccccc3Cl)CC2)c2cc(F)ccc2c1` [Example 6, {4-[1-(2-Chloro-benzenesulfonyl)-piperidin-4-yl]-6-fluoro-naphthalen-2-yl}-acetic acid] and `O=C(O)Cc1cc(C2CCN(S(=O)(=O)c3cc(Cl)ccc3Cl)CC2)c2cc(F)ccc2c1` [Example 10, {4-[1-(2,5-Dichloro-benzenesulfonyl)-piperidin-4-yl]-6-fluoro-naphthalen-2-yl}-acetic acid] are within 1.5-fold of each other in IC50: 2.5 nM for the first, 3.5 nM for the second.

Going from `O=C(O)Cc1cc(C2CCN(S(=O)(=O)c3cccc(Cl)c3)CC2)c2cc(F)ccc2c1` [Example 7, {4-[1-(3-Chloro-benzenesulfonyl)-piperidin-4-yl]-6-fluoro-naphthalen-2-yl}-acetic acid] to `O=C(O)Cc1cc(C2CCN(S(=O)(=O)c3ccccc3)CC2)c2cc(F)ccc2c1` [Example 1, [4-(1-Benzenesulfonyl-piperidin-4-yl)-6-fluoro-naphthalen-2-yl]-acetic acid], the IC50 falls from 95 nM to 18 nM (5.3-fold).

Going from `O=C(O)Cc1cc(C2CCN(S(=O)(=O)c3ccccn3)CC2)c2cc(F)ccc2c1` [Example 3, {6-Fluoro-4-[1-(pyridine-2-sulfonyl)-piperidin-4-yl]-naphthalen-2-yl}-acetic acid] to `O=C(O)Cc1cc(C2CCN(S(=O)(=O)c3ccc(Cl)cc3Cl)CC2)c2cc(F)ccc2c1` [Example 11, {4-[1-(2,4-Dichloro-benzenesulfonyl)-piperidin-4-yl]-6-fluoro-naphthalen-2-yl}-acetic acid], the IC50 falls from 104 nM to 4.8 nM (22-fold). The second is the more potent here.

`CS(=O)(=O)c1cccc(S(=O)(=O)N2CCC(c3cc(CC(=O)O)cc4ccc(F)cc34)CC2)c1` [Example 9, {6-Fluoro-4-[1-(3-methanesulfonyl-benzenesulfonyl)-piperidin-4-yl]-naphthalen-2-yl}-acetic acid] was tested, and the IC50 was 1150 nM.
